Measurements as given in US20230365592A1 (Agios Pharmaceuticals, Inc., priority 2022, published 2023).
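Note: after compound treatment, cells received sepiapterin plus isotope-labelled Phenylalanine for 4 hours, then labelled Tyrosine in the medium was quantified, 10-point 2-fold dilution series run in duplicate.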

The compounds below were run against T1, human PAH with the R408W mutation (Homo sapiens, UniProt P00439, R408W) (assay: Cell Based Phenylalanine Flux Assay). Settings: A375 cells expressing human R408W PAH; 24 hrs compound incubation; 13C-Tyrosine by LC-MS; average where tested multiple times; read-out: AC50.
T1 construct: expressed in transfected cells
T1 sequence (P00439 1-452 R408W): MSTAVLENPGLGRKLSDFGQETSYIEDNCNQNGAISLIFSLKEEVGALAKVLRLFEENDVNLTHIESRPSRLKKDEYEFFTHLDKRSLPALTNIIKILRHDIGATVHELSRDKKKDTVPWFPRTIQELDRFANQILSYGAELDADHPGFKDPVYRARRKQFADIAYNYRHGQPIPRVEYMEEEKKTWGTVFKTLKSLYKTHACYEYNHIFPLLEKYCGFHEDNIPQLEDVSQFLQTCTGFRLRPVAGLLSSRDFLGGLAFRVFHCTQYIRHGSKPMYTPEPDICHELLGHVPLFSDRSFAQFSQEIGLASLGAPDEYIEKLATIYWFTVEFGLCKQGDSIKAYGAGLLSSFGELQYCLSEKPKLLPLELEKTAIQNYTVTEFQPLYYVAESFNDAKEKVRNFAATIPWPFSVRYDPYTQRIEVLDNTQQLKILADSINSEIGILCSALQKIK
Compound `Cn1cc(-c2nnc(C(=O)N3CCc4[nH]cnc4[C@H]3c3cc4c(Cl)cccn4n3)o2)cn1` [Example 688, (S)-(4-(4-chloropyrazolo[1,5-a]pyridin-2-yl)-6,7-dihydro-1H-imidazo[4,5-c]pyridin-5(4H)-yl)(5-(1-methyl-1H-pyrazol-4-yl)-1,3,4-oxadiazol-2-yl)methanone] has an AC50 of under 500 nM.
Work on `Cn1cc(-c2nnc(C(=O)N3CCc4[nH]cnc4[C@@H]3c3cc4c(Cl)cccn4n3)o2)cn1` [Example 689, (R)-(4-(4-chloropyrazolo[1,5-a]pyridin-2-yl)-6,7-dihydro-1H-imidazo[4,5-c]pyridin-5(4H)-yl)(5-(1-methyl-1H-pyrazol-4-yl)-1,3,4-oxadiazol-2-yl)methanone] yielded an AC50 of over 5000 nM.
`C[C@@H](O)c1nc(C(F)F)c(C(=O)N2CCc3[nH]cnc3[C@H]2c2cc3ccccn3n2)o1` [Example 690, (4-(difluoromethyl)-2-((R)-1-hydroxyethyl)oxazol-5-yl)((S)-4-(pyrazolo[1,5-a]pyridin-2-yl)-6,7-dihydro-1H-imidazo[4,5-c]pyridin-5(4H)-yl)methanone] showed an AC50 of under 500 nM.
With `C[C@H](O)c1nc(C(F)F)c(C(=O)N2CCc3[nH]cnc3[C@H]2c2cc3ccccn3n2)o1` [Example 692, (4-(difluoromethyl)-2-((S)-1-hydroxyethyl)oxazol-5-yl)((S)-4-(pyrazolo[1,5-a]pyridin-2-yl)-6,7-dihydro-1H-imidazo[4,5-c]pyridin-5(4H)-yl)methanone] the AC50 was under 500 nM.
Work on `C[C@H](O)c1nc(C(F)F)c(C(=O)N2CCc3[nH]cnc3[C@@H]2c2cc3ccccn3n2)o1` [Example 693, (4-(difluoromethyl)-2-((S)-1-hydroxyethyl)oxazol-5-yl)((R)-4-(pyrazolo[1,5-a]pyridin-2-yl)-6,7-dihydro-1H-imidazo[4,5-c]pyridin-5(4H)-yl)methanone] yielded an AC50 of over 5000 nM.
`Cn1nc(Cl)nc1C(=O)N1CCc2[nH]cnc2[C@H]1c1cc2ccccn2n1` [Example 694, (S)-(3-chloro-1-methyl-1H-1,2,4-triazol-5-yl)(4-(pyrazolo[1,5-a]pyridin-2-yl)-6,7-dihydro-1H-imidazo[4,5-c]pyridin-5(4H)-yl)methanone] was tested, and the AC50 was under 500 nM.
With `Cn1nc(Cl)nc1C(=O)N1CCc2[nH]cnc2[C@@H]1c1cc2ccccn2n1` [Example 695, (R)-(3-chloro-1-methyl-1H-1,2,4-triazol-5-yl)(4-(pyrazolo[1,5-a]pyridin-2-yl)-6,7-dihydro-1H-imidazo[4,5-c]pyridin-5(4H)-yl)methanone] the AC50 was over 5000 nM.
For `Cn1cc(-c2nnc(C(=O)N3CCc4[nH]cnc4[C@H]3c3cc4ccc(Cl)cn4n3)o2)cn1` [Example 696, (S)-(4-(6-chloropyrazolo[1,5-a]pyridin-2-yl)-6,7-dihydro-1H-imidazo[4,5-c]pyridin-5(4H)-yl)(5-(1-methyl-1H-pyrazol-4-yl)-1,3,4-oxadiazol-2-yl)methanone], the AC50 was under 500 nM.
Work on `Cn1cc(-c2nnc(C(=O)N3CCc4[nH]cnc4[C@@H]3c3cc4ccc(Cl)cn4n3)o2)cn1` [Example 697, (R)-(4-(6-chloropyrazolo[1,5-a]pyridin-2-yl)-6,7-dihydro-1H-imidazo[4,5-c]pyridin-5(4H)-yl)(5-(1-methyl-1H-pyrazol-4-yl)-1,3,4-oxadiazol-2-yl)methanone] yielded an AC50 of over 5000 nM.
`CC(C)(C#N)c1nc(C(F)F)c(C(=O)N2CCc3[nH]cnc3[C@H]2c2cc3ccccn3n2)o1` [Example 699, (S)-2-(4-(difluoromethyl)-5-(4-(pyrazolo[1,5-a]pyridin-2-yl)-4,5,6,7-tetrahydro-1H-imidazo[4,5-c]pyridine-5-carbonyl)oxazol-2-yl)-2-methylpropanenitrile] was tested, and the AC50 was under 500 nM.
`CC(C)(O)c1nc(C(F)F)c(C(=O)N2CCc3[nH]cnc3[C@H]2c2cc3c(Cl)cccn3n2)o1` [Example 700, (S)-(4-(4-chloropyrazolo[1,5-a]pyridin-2-yl)-6,7-dihydro-1H-imidazo[4,5-c]pyridin-5(4H)-yl)(4-(difluoromethyl)-2-(2-hydroxypropan-2-yl)oxazol-5-yl)methanone] was tested, and the AC50 was under 500 nM.
With `CC(C)(O)c1nc(C(F)F)c(C(=O)N2CCc3[nH]cnc3[C@@H]2c2cc3c(Cl)cccn3n2)o1` [Example 701, (R)-(4-(4-chloropyrazolo[1,5-a]pyridin-2-yl)-6,7-dihydro-1H-imidazo[4,5-c]pyridin-5(4H)-yl)(4-(difluoromethyl)-2-(2-hydroxypropan-2-yl)oxazol-5-yl)methanone] the AC50 was 1000 to 5000 nM.
Compound `C[C@@H](O)c1nc(C(F)F)c(C(=O)N2CCc3[nH]cnc3[C@H]2c2cc3c(Cl)cccn3n2)o1` [Example 702, ((S)-4-(4-chloropyrazolo[1,5-a]pyridin-2-yl)-6,7-dihydro-1H-imidazo[4,5-c]pyridin-5(4H)-yl)(4-(difluoromethyl)-2-((R)-1-hydroxyethyl)oxazol-5-yl)methanone] has an AC50 of under 500 nM.
Compound `C[C@@H](O)c1nc(C(F)F)c(C(=O)N2CCc3[nH]cnc3[C@@H]2c2cc3c(Cl)cccn3n2)o1` [Example 703, ((R)-4-(4-chloropyrazolo[1,5-a]pyridin-2-yl)-6,7-dihydro-1H-imidazo[4.5-c]pyridin-5(4H)-yl)(4-(difluoromethyl)-2-((R)-1-hydroxyethyl)oxazol-5-yl)methanone] has an AC50 of 1000 to 5000 nM.
Work on `O=C(c1oc(C2(O)CC2)nc1C(F)F)N1CCc2[nH]cnc2[C@H]1c1cc2c(Cl)cccn2n1` [Example 704, (S)-(4-(4-chloropyrazolo[1,5-a]pyridin-2-yl)-6,7-dihydro-1H-imidazo[4,5-c]pyridin-5(4H)-yl)(4-(difluoromethyl)-2-(1-hydroxycyclopropyl)oxazol-5-yl)methanone] yielded an AC50 of under 500 nM.
For `Cc1nc([C@@H](C)O)oc1C(=O)N1CCc2[nH]cnc2[C@H]1c1cc2c(Cl)cccn2n1` [Example 706, ((S)-4-(4-chloropyrazolo[1,5-a]pyridin-2-yl)-6,7-dihydro-1H-imidazo[4,5-c]pyridin-5(4H)-yl)(2-((R)-1-hydroxyethyl)-4-methyloxazol-5-yl)methanone], the AC50 was under 500 nM.
Work on `Cc1nc([C@H](C)O)oc1C(=O)N1CCc2[nH]cnc2[C@H]1c1cc2c(Cl)cccn2n1` [Example 708, ((S)-4-(4-chloropyrazolo[1,5-a]pyridin-2-yl)-6,7-dihydro-1H-imidazo[4,5-c]pyridin-5(4H)-yl)(2((S)-1-hydroxyethyl)-4-methyloxazol-5-yl)methanone] yielded an AC50 of under 500 nM.
Compound `C[C@@H](O)c1nc(C(F)F)c(C(=O)N2CCc3[nH]cnc3[C@H]2c2cc3c(F)cccn3n2)o1` [Example 710, (4-(difluoromethyl)-2-((R)-1-hydroxyethyl)oxazol-5-yl)((s)-4-(4-fluoropyrazolo[1,5-a]pyridin-2-yl)-6,7-dihydro-1H-imidazo[4,5-c]pyridin-5(4H)-yl)methanone] has an AC50 of under 500 nM.
`CC(C)(O)c1nc(C(F)F)c(C(=O)N2CCc3[nH]cnc3[C@H]2c2cc3c(F)cccn3n2)o1` [Example 714, (S)-(4-(difluoromethyl)-2-(2-hydroxypropan-2-yl)oxazol-5-yl)(4-(4-fluoropyrazolo[1,5-a]pyridin-2-yl)-6,7-dihydro-1H-imidazo[4,5-c]pyridin-5(4H)-yl)methanone] showed an AC50 of under 500 nM.
`CC(C)(O)c1nc(C(F)F)c(C(=O)N2CCc3[nH]cnc3[C@@H]2c2cc3c(F)cccn3n2)o1` [Example 715, (R)-(4-(difluoromethyl)-2-(2-hydroxypropan-2-yl)oxazol-5-yl)(4-(4-fluoropyrazolo[1,5-a]pyridin-2-yl)-6,7-dihydro-1H-imidazo[4,5-c]pyridin-5(4H)-yl)methanone] was tested, and the AC50 was over 5000 nM.
`O=C(c1ccnn1C(F)(F)F)N1CCc2[nH]cnc2[C@H]1c1cc2ccccn2n1` [Example 716, (S)-(4-(pyrazolo[1,5-a]pyridin-2-yl)-6,7-dihydro-1H-imidazo[4,5-c]pyridin-5(4H)-yl)(1-(trifluoromethyl)-1H-pyrazol-5-yl)methanone] was tested, and the AC50 was under 500 nM.
`O=C(c1ccnn1C(F)(F)F)N1CCc2[nH]cnc2[C@@H]1c1cc2ccccn2n1` [Example 717, (R)-(4-(pyrazolo[1,5-a]pyridin-2-yl)-6,7-dihydro-1H-imidazo[4,5-c]pyridin-5(4H)-yl)(1-(trifluoromethyl)-1H-pyrazol-5-yl)methanone] gave an AC50 of 500 to 1000 nM.
`Cn1ccc(-c2nnc(C(=O)N3CCc4[nH]cnc4[C@H]3c3cc4c(Cl)cccn4n3)o2)n1` [Example 718, (S)-(4-(4-chloropyrazolo[1,5-a]pyridin-2-yl)-6,7-dihydro-1H-imidazo[4,5-c]pyridin-5(4H)-yl)(5-(1-methyl-1H-pyrazol-3-yl)-1,3,4-oxadiazol-2-yl)methanone] gave an AC50 of under 500 nM.
`Cn1ccc(-c2nnc(C(=O)N3CCc4[nH]cnc4[C@@H]3c3cc4c(Cl)cccn4n3)o2)n1` [Example 719, (R)-(4-(4-chloropyrazolo[1,5-a]pyridin-2-yl)-6,7-dihydro-1H-imidazo[4,5-c]pyridin-5(4H)-yl)(5-(1-methyl-1H-pyrazol-3-yl)-1,3,4-oxadiazol-2-yl)methanone] showed an AC50 of over 5000 nM.
`CC(C)(O)c1nc(Cl)c(C(=O)N2CCc3[nH]cnc3[C@H]2c2cc3c(Cl)cccn3n2)o1` [Example 720, (S)-(4-chloro-2-(2-hydroxypropan-2-yl)oxazol-5-yl)(4-(4-chloropyrazolo[1,5-a]pyridin-2-yl)-6,7-dihydro-1H-imidazo[4,5-c]pyridin-5(4H)-yl)methanone] gave an AC50 of under 500 nM.
With `CC(C)(O)c1nc(Cl)c(C(=O)N2CCc3[nH]cnc3[C@@H]2c2cc3c(Cl)cccn3n2)o1` [Example 721, (R)-(4-chloro-2-(2-hydroxypropan-2-yl)oxazol-5-yl)(4-(4-chloropyrazolo[1,5-a]pyridin-2-yl)-6,7-dihydro-1H-imidazo[4,5-c]pyridin-5(4H)-yl)methanone] the AC50 was over 5000 nM.
